{"source": "patent US20240043928A1", "about": "“BIOMARKERS FOR MYELODYSPLASTIC SYNDROME (MDS) AND METHODS OF USING THE SAME” (Eisai R&D Management Co., Ltd., priority 2020, published 2024)", "origin": "cited, not measured here", "settings": "subjects of a prior phase 1 trial; cited from earlier work"}
{"smiles": "CC[C@H](O)[C@@H](C)[C@H]1O[C@@H]1C[C@@](C)(O)/C=C/C=C(\\C)[C@H]1OC(=O)C[C@H](O)CC[C@@](C)(O)[C@@H](OC(=O)N2CCN(C3CCCCCC3)CC2)/C=C/[C@@H]1C", "note": "[Compound E7107]", "values": [{"measurement": "visual loss", "value": "visual loss was observed"}]}
